Experimental findings from publication PMC6111440, “Cyclin-Dependent Kinase (CDK) Inhibitors: Structure–Activity Relationships and Insights into the CDK-2 Selectivity of 6-Substituted 2-Arylaminopurines” (Journal of Medicinal Chemistry, 2016) are described below.

For test [1], the target named is T1, CDK5 (Homo sapiens, UniProt Q00535). The conditions noted are these: read-out: CDK5 Inhibitory Activity IC50; Table 3.
For test [2], the target named is T2, CDK7/H (Homo sapiens, UniProt P50613).
Experimental: (§1) Human CDK1/B was purchased from New England Biolabs or prepared as described,[46] CDK2/A2 was prepared as described,[46] CDK4/D was provided by AstraZeneca, and CDK7/H and CDK9/T were purchased from Upstate. IC50 values for CDK1/B, CDK2/A, and CDK4/D were determined as described.[23] IC50 values for CDK7/H and CDK9/H were determined according to the supplier’s instructions (Upstate).
Test [3] has as its target T3, CDK9/T (Homo sapiens, UniProt P50750).
Experimental: as §1
In test [4] the test system is Rb-proficient human tumor cell lines (A375, Calu-6, MDA-MB-231, SJSA1, SKUT-1B). The test can be described thus: 5-day growth inhibition SRB assay. Particulars: for GI50: Homo sapiens, 120 h.
Experimental: Dose–response curves and GI50 bar charts represent the mean ± SEM from three or four independent experiments.
The ability of selected compounds to inhibit cell growth was assessed in a panel of human cancer cell lines using an SRB assay.[45] […] At least three independent experiments were performed. Growth inhibitory GI50 values were calculated using GraphPad Prism software (GraphPad Software, Inc., San Diego, CA).
The target of test [5] is T4, CDK2/A (Homo sapiens, UniProt P24941).
Experimental: as §1
Test [6] has as its target T5, Human CDK1/B (Homo sapiens, UniProt P06493).
Experimental: as §1
The next test has as its target CDK4/D (Homo sapiens, UniProt P11802). Briefly: biochemical. Particulars: for inhibition at 100 µM: read-out: CDK4/D % inhibition at 100 μM; for inhibition at 10 µM: read-out: CDK4 Inhibition at 10 μM (%).
For test [7], the target named is T2, CDK7/H. The test can be described thus: biochemical. Particulars: for inhibition at 10 µM: read-out: CDK7 Inhibition at 10 μM (%).
Experimental: as §1
Test [8] deals with T4, CDK2/A. The test can be described thus: biochemical.
Experimental: as §1
Test [9] has as its target T5, Human CDK1/B. Briefly: biochemical. The conditions noted are these: read-out: CDK1 Inhibition at 10 μM (%).
Experimental: as §1
The target in test [10] is T1, CDK5. Briefly: biochemical. Particulars: read-out: CDK5 Inhibition at 10 μM (%).
Test [11] deals with T3, CDK9/T. Briefly: biochemical. The conditions noted are these: read-out: CDK9 Inhibition at 10 μM (%).
Experimental: as §1
Setting [12] is: read-out: CDK7 Inhibitory Activity IC50, Table 3.
[13] abbreviates: read-out: CDK9 Inhibitory Activity IC50, Table 3.
Setting [14] is: read-out: CDK2 Inhibition IC50, Table 1, ATP 12.5 μM.
Setting [15] is: read-out: CDK1/B IC50, Table 2, ATP 12.5 μM.
Setting [16] is: read-out: CDK9/T IC50, Table 2, ATP 100 μM.
Where [17] appears, read: read-out: CDK2 Inhibition at 10 μM (%).
Setting [18] is: read-out: CDK7/H IC50, Table 2, ATP 100 μM.
Setting [19] is: read-out: CDK2 Inhibitory Activity IC50, Table 3.
[20] abbreviates: read-out: CDK1 Inhibitory Activity IC50, Table 3.

Structures are written as SMILES. Read-outs that look alike come from different tables or passages of the source.

T1 sequence (Q00535 whole entry, species assumed): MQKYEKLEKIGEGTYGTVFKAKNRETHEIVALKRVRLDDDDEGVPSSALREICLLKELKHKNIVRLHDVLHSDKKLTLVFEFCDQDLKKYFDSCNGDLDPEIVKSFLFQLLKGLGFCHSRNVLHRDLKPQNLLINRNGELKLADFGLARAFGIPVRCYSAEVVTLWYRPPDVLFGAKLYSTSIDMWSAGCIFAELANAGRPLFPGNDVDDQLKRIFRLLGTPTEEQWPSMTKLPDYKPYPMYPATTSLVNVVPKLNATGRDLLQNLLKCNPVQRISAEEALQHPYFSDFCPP
T1 sequence (Q15078 99-307 partner limits assumed, species assumed): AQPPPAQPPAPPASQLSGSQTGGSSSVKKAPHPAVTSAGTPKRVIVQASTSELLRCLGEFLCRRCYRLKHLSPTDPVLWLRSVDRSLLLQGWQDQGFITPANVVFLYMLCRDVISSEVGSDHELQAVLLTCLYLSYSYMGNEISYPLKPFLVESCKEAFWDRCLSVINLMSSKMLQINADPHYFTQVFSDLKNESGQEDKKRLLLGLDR
T2 sequence (P50613 whole entry): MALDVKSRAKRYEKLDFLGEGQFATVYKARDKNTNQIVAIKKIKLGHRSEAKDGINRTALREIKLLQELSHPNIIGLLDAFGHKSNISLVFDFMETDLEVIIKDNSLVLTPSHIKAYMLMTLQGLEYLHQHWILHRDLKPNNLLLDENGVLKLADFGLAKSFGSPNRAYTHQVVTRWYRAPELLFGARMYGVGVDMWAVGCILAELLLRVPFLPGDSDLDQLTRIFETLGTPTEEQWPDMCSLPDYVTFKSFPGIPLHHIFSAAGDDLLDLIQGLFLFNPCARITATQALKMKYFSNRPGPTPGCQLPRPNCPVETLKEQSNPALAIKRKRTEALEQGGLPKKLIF
T2 sequence (P51946 whole entry partner): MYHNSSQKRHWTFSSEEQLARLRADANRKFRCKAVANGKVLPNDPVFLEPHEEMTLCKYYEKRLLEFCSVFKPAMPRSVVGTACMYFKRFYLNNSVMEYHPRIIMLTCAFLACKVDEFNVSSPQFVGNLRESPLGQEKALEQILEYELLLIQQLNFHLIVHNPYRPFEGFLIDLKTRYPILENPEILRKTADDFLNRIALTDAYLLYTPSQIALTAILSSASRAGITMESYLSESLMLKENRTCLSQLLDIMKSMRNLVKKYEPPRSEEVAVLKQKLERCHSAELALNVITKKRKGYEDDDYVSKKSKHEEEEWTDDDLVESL
T2 sequence (P51948 whole entry partner): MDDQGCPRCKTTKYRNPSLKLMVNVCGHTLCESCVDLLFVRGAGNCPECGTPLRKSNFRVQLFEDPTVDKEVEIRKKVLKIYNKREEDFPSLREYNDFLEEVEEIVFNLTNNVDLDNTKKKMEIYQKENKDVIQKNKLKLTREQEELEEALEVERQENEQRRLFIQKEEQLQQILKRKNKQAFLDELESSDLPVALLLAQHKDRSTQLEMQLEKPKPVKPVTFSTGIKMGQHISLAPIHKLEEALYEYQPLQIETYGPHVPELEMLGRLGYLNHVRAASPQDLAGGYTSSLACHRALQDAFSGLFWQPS
Chain of CDK4/D (P11802 whole entry): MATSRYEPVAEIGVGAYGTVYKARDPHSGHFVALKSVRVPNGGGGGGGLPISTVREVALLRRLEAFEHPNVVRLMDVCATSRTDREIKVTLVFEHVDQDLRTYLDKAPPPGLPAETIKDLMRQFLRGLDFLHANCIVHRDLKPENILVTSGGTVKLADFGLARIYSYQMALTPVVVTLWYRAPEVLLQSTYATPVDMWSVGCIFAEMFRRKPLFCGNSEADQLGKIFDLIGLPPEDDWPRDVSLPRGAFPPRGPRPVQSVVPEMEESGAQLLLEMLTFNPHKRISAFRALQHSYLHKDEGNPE
Chain of CDK4/D (P24385 whole entry partner): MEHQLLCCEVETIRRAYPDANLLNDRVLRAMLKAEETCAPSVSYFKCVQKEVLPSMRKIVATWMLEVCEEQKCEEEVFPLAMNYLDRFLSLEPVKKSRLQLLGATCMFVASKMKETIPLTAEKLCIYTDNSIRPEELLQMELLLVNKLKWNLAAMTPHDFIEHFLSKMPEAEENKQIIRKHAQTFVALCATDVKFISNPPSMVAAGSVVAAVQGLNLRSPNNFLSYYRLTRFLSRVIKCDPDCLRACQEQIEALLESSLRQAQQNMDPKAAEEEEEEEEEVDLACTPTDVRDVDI
T3 sequence (P50750 whole entry): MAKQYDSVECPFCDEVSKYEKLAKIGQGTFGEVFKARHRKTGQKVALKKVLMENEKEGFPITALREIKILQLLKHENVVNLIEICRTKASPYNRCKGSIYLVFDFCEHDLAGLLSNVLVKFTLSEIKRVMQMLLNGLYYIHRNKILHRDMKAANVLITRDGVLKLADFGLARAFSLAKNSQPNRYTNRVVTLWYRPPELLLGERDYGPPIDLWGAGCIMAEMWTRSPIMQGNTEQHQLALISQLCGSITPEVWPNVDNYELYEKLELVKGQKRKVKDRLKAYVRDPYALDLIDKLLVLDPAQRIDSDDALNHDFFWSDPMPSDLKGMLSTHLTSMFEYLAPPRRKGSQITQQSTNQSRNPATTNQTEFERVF
T3 sequence (O60563 whole entry partner): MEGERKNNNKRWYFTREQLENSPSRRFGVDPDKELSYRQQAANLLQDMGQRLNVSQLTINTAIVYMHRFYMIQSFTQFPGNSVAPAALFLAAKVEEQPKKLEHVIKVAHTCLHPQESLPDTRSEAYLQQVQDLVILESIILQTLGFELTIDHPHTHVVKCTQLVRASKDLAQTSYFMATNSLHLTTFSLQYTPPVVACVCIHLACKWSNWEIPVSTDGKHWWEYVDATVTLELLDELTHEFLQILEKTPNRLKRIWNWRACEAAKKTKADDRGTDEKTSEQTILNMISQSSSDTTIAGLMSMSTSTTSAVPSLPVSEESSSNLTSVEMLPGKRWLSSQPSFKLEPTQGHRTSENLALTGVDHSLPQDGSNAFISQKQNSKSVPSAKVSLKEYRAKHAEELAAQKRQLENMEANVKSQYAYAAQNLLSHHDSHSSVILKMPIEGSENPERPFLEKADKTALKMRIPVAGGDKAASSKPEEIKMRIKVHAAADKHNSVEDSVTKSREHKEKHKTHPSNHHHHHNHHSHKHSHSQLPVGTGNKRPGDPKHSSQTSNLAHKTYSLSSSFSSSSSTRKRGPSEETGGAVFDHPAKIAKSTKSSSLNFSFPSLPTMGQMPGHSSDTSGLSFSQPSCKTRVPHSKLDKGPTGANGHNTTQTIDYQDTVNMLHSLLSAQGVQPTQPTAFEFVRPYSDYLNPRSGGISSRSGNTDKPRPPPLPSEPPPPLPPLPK
T5 sequence (P06493 whole entry): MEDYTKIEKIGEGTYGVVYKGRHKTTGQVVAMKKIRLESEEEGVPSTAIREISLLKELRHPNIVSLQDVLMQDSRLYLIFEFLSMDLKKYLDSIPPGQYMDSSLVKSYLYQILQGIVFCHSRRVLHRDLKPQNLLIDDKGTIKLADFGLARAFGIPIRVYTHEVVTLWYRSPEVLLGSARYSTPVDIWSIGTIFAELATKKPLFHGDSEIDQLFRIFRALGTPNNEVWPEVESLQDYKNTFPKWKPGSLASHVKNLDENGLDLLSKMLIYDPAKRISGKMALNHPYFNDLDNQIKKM
T5 sequence (P14635 whole entry partner): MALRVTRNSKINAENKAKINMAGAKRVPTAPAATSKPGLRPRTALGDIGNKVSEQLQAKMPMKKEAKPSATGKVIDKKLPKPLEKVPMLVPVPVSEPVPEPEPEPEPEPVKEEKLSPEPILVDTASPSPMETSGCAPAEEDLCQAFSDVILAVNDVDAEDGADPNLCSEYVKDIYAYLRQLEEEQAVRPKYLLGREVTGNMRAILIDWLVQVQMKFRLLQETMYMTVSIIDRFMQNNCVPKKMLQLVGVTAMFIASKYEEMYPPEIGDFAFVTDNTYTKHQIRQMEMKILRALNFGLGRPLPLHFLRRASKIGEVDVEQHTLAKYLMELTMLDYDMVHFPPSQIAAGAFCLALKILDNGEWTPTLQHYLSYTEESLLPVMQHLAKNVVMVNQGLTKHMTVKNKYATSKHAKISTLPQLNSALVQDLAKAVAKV
Experimental for CDK4/D: as §1

As for `NS(=O)(=O)c1ccc(Nc2nc(OCC3CCCCC3)c3cn[nH]c3n2)cc1` [Compound 91, 4-((4-(Cyclohexylmethoxy)-1H-pyrazolo[3,4-d]pyrimidin-6-yl)amino)benzenesulfonamide], the figures for the IC50 on CDK5 [1], on CDK7/H [2] (setting [12]) and at CDK9/T [3] (setting [13]) were 5900 ± 100 nM, 7000 ± 300 nM and 4600 ± 200 nM, respectively. The molecule further registered a GI50 in [4] of 1000 to 22000 nM.
As for `NS(=O)(=O)c1ccc(Nc2nc(-c3cccc(-c4ccccc4)c3)c3nc[nH]c3n2)cc1` [Compound 73, 4-((6-([1,1′-Biphenyl]-3-yl)-9H-purin-2-yl)amino)benzenesulfonamide], at CDK2/A [5] (ratio of CDK1 and CDK2 IC50), the “selectivity for CDK2 over CDK1” value is given as about 2000 fold. In addition, the IC50 at CDK2/A [5] (setting [14]) came out at 44 ± 12 nM; on Human CDK1/B [6] (setting [15]) it was 86000 ± 4000 nM; at CDK9/T [3] (setting [16]) it was 25000 ± 8000 nM. Further, the values for the inhibition at 100 µM at CDK4/D and on CDK7/H [7] (read-out: CDK7/H % inhibition at 100 μM) were 26% and 28%, respectively. Also, the “effect on the growth of cells” value in test [4] (maximal concentration tested 30 μM, 5-day growth assay, GI50 could not be determined) is given as “no or limited effects”.
In the case of `CC(C)[Si](C#Cc1nc(Nc2ccc(S(N)(=O)=O)cc2)nc2[nH]cnc12)(C(C)C)C(C)C` [Compound 40, 4-(6-((Triisopropylsilyl)ethynyl)-9H-purin-2-ylamino)benzenesulfonamide], the IC50 at CDK2/A [5] (setting [14]) was found to be 17 ± 1 nM.
For `NS(=O)(=O)c1ccc(Nc2cc(OCC3CCCCC3)n3ccnc3n2)cc1` [Compound 102, 5-Cyclohexylmethoxy-7-(4′-sulfamoylanilino)imidazo[1,2-a]pyrimidine], the inhibition at 10 µM on CDK2/A [8] (setting [17]) was found to be 36%.
For `NS(=O)(=O)c1ccc(Nc2ncc3nc[nH]c3n2)cc1` [Compound 13, 4-(9H-Purin-2-ylamino)benzenesulfonamide], the “fold less active/potent than 3 against CDK2” value at CDK2/A [5] (compared with 3) is reported as about 300 fold. Also, the IC50 at CDK2/A [5] (setting [14]) was determined as 1500 ± 100 nM; at Human CDK1/B [6] (setting [15]), 15800 ± 1200 nM; on CDK7/H [2] (setting [18]), 75000 ± 3000 nM; at CDK9/T [3] (setting [16]), 38000 ± 11000 nM. Also, the inhibition at 100 µM on CDK4/D came out at 12%.
Turning to `C(#Cc1nc(Nc2ccccc2)nc2[nH]cnc12)c1ccccc1` [Compound 49, N-Phenyl-6-(phenylethynyl)-9H-purin-2-amine], the IC50 at CDK2/A [5] (setting [14]) was 8900 ± 700 nM.
Turning to `Nc1nc(OCC2CCCCC2)c2cn[nH]c2n1` [Compound 87, 4-(Cyclohexylmethoxy)-1H-pyrazolo[3,4-d]pyrimidin-6-amine], the IC50 on CDK2/A [5] (setting [19]) is 16000 ± 4000 nM. Besides, the inhibition at 10 µM at Human CDK1/B [9] was determined as 32%; on CDK4/D, 0%; at CDK5 [10], 14%; at CDK7/H [7], 16%; on CDK9/T [11], 16%.
Consider `NS(=O)(=O)c1ccc(Nc2nc(-c3ccc4c(c3)OCO4)c3nc[nH]c3n2)cc1` [Compound 74, 4-(6-(Benzo[d][1,3]dioxol-5-yl)-9H-purin-2-ylamino)benzenesulfonamide], for which the “fold less potent than 70 (CDK2)” value on CDK2/A [5] (compared with 70) is about 20 fold. Also, the IC50 on CDK2/A [5] (setting [14]) came out at 580 ± 20 nM.
Turning to `NS(=O)(=O)c1ccc(Nc2cc(OCC3CCCCC3)c3nc[nH]c3n2)cc1` [Compound 83, 4-((7-(Cyclohexylmethoxy)-3H-imidazo[4,5-b]pyridin-5-yl)amino) benzenesulfonamide], the IC50 is 290 ± 10 nM on CDK2/A [5] (setting [19]) and 11000 ± 2000 nM on Human CDK1/B [6] (setting [20]). In addition, the inhibition at 10 µM is 23 ± 1% at CDK4/D, 37% at CDK5 [10], 37% at CDK7/H [7] and 42% on CDK9/T [11].
With `Nc1nc(OCC2CCCCC2)c2nn[nH]c2n1` [Compound 86, 7-(Cyclohexylmethoxy)-3H-[1,2,3]triazolo[4,5-d]pyrimidin-5-amine], the IC50 on CDK2/A [5] (setting [19]) was found to be 18000 ± 1000 nM. The inhibition at 10 µM on Human CDK1/B [9] worked out at 21%; at CDK4/D it was 6.2%; on CDK5 [10], 13%; on CDK7/H [7] it was 13%; on CDK9/T [11] it was 16%.
Take `c1ccc(Nc2ncc3nc[nH]c3n2)cc1` [Compound 12, Phenyl-(9H-purin-2-yl)amine]: the IC50 on CDK2/A [5] (setting [14]) was 61000 ± 100 nM.
Take `NS(=O)(=O)c1ccc(Nc2nc(OCC3CCCCC3)c3nn[nH]c3n2)cc1` [Compound 90, 4-((7-(Cyclohexylmethoxy)-3H-[1,2,3]triazolo[4,5-d]pyrimidin-5-yl)amino) benzenesulfonamide]: the IC50 on CDK2/A [5] (setting [19]) came out at 2 ± 0.1 nM; on Human CDK1/B [6] (setting [20]), 750 ± 60 nM; on CDK5 [1], 3300 ± 200 nM; on CDK7/H [2] (setting [12]) it was 6800 ± 700 nM; on CDK9/T [3] (setting [13]), 750 ± 30 nM.
Consider `COc1cccc(-c2nc(Nc3ccc(S(N)(=O)=O)cc3)nc3[nH]cnc23)c1` [Compound 71, 4-(6-(3-Methoxyphenyl)-9H-purin-2-ylamino)benzenesulfonamide], for which the IC50 on CDK2/A [5] (setting [14]) stood at 39 ± 13 nM.
For `CCC(C)Oc1nc(Nc2ccc(S(N)(=O)=O)cc2)nc2[nH]cnc12` (racemic) [Compound 34], the IC50 on CDK2/A [5] (read-out: CDK2/A IC50, Table 2, ATP 12.5 μM) is 1.2 ± 0.5 nM; at CDK2/A [5] (setting [14]), 1 ± 0.5 nM; on Human CDK1/B [6] (setting [15]), 97 ± 40 nM; on CDK7/H [2] (setting [18]) it was 2800 ± 100 nM; at CDK9/T [3] (setting [16]) it was 570 ± 50 nM.
On to `Nc1nc2ncnc-2c[nH]1` [Compound 8, 2-Aminopurine, reference compound], for which the inhibition at 100 µM at CDK2/A [8] (read-out: CDK2 Inhibition (%) at 100 μM) turned out to be 4%.
Regarding `NS(=O)(=O)c1ccc(Nc2nc(OCC3CCCCC3)c3cc[nH]c3n2)cc1` [Compound 98, 4-((4-(Cyclohexylmethoxy)-7H-pyrrolo[2,3-d]pyrimidin-2-yl)amino)benzenesulfonamide], the IC50 worked out at 26 ± 1 nM at CDK2/A [5] (setting [19]); 2700 ± 200 nM on Human CDK1/B [6] (setting [20]); 4400 ± 600 nM on CDK5 [1]; 4100 ± 200 nM on CDK7/H [2] (setting [12]); 1000 ± 200 nM on CDK9/T [3] (setting [13]). For the same molecule, the GI50 in test [4] fell in the range of 1000 to 22000 nM.
For `Nc1nc(OCC2CCCCC2)c2cc[nH]c2n1` [Compound 93, 4-(Cyclohexylmethoxy)-7H-pyrrolo[2,3-d]pyrimidin-2-amine], the inhibition at 10 µM on CDK2/A [8] (read-out: CDK2 Inhibition (%) at 10 uM) worked out at 41 ± 10%; on Human CDK1/B [9] it was 11%; on CDK4/D it was 5.6%; at CDK5 [10] it was 12%; at CDK7/H [7], 5.1%; at CDK9/T [11], 0%. In addition, the inhibition at 100 µM on CDK2/A [8] (read-out: CDK2 Inhibition (%), value determined at 100 μM) stood at 41%.
Consider `NS(=O)(=O)c1ccc(Nc2nc(-c3cccc4c3oc3ccccc34)c3nc[nH]c3n2)cc1` [Compound 75, 4-(6-(4-Dibenzofuryl)-9H-purin-2-ylamino)benzenesulfonamide], for which the IC50 at CDK2/A [5] (setting [14]) stood at 1400 ± 200 nM.
On the same count and under the same terms, in the case of `COc1ccc(-c2nc(Nc3ccc(S(N)(=O)=O)cc3)nc3[nH]cnc23)cc1` [Compound 72, 4-(6-(4-Methoxyphenyl)-9H-purin-2-ylamino)benzenesulfonamide] it was 52 ± 4 nM; in that of `CC#Cc1nc(Nc2ccccc2)nc2[nH]cnc12` [Compound 48, N-Phenyl-6-(prop-1-yn-1-yl)-9H-purin-2-amine], 6400 ± 400 nM.
As to `c1ccc(Nc2cc(OCC3CCCCC3)n3ccnc3n2)cc1` [Compound 101, 5-Cyclohexylmethoxy-7-anilinoimidazo[1,2-a]pyrimidine], on CDK2/A [8] (setting [17]), the inhibition at 10 µM worked out at 10%.
With `CCc1nc(Nc2ccc(S(N)(=O)=O)cc2)nc2[nH]cnc12` [Compound 52, 4-(6-Ethyl-9H-purin-2-ylamino)benzenesulfonamide], at CDK2/A [5] (compared with 6-ethoxypurine 30), the “fold reduction of CDK2-inhibitory activity compared with 30” value is given as about 10 fold. Besides, the IC50 at CDK2/A [5] (setting [14]) was determined as 220 ± 3 nM.
For `NS(=O)(=O)c1ccc(Nc2nc(-c3ccccc3)c3nc[nH]c3n2)cc1` [Compound 70, 4-(6-Phenyl-9H-purin-2-ylamino)benzenesulfonamide], the IC50 was found to be 24 ± 2 nM on CDK2/A [5] (setting [14]), 730 ± 3 nM on Human CDK1/B [6] (setting [15]), 6800 ± 400 nM at CDK7/H [2] (setting [18]) and 570 ± 40 nM at CDK9/T [3] (setting [16]).
For `NS(=O)(=O)c1ccc(Nc2nc(-c3cccc4c3Sc3ccccc3S4)c3nc[nH]c3n2)cc1` [Compound 76], the IC50 on CDK2/A [5] (setting [14]) was 6700 ± 500 nM.
The same measure, in the same setting: with `NS(=O)(=O)c1ccc(Nc2nc(C3CC3)c3nc[nH]c3n2)cc1` [Compound 55, 4-(6-Cyclopropyl-9H-purin-2-ylamino)benzenesulfonamide] the figure was 19 ± 1 nM.
Consider `Nc1cc(OCC2CCCCC2)c2nc[nH]c2n1` [Compound 80, 7-(Cyclohexylmethoxy)-3H-imidazo[4,5-b]pyridin-5-amine], for which the IC50 on CDK2/A [5] (setting [19]) amounted to 28400 ± 800 nM.
